Source: US20240391877A1, “COMPOUND AS INHIBITOR OF COMPLEMENT FACTOR D, AND PHARMACEUTICAL COMPOSITION AND USE THEREOF” (WUHAN CREATERNA SCIENCE AND TECHNOLOGY CO.,LTD., priority 2021, published 2024)

Columns and labels:
[1] = system: hemolysis of rabbit erythrocytes; assay: Rabbit erythrocyte hemolysis assay to evaluate inhibitory activity on the bypass pathway; assay type: cell-based; conditions: Oryctolagus cuniculus, 0.5 h, 48% NHP or 26.4% NHS, 37° C. 30 min, absorbance 415 nm
Source text: 2. Rabbit Erythrocyte Hemolysis Assay to Evaluate the Inhibitory Activity of Compounds on the Bypass Pathway
Normal Human Serum, NHS (collected from healthy people), Normal Human Plasma, NHP (Shanghai Yuduo), 96-well ELISA plate (Jet Biofil), Japanese big-eared white rabbit (Wuhan WQJX), Alsever's solution (Procell), centrifuge (Thermo, PICO17), thermostatic shaker (Shanghai Fuma), destaining shaker (Beijing Liuyi), cell counter (Invitrogen, Counter Countess II) (GVB^o, EGTA, MgCl2, NaOH, microplate reader, microplate thermostatic shaker, and pipette are equivalent to those in the experiment 1).
48% NHP: 100% NHP was diluted to 48% with buffer;
26.4% NPS: 100% NHS was diluted to 26.4% with buffer;
rabbit erythrocyte suspension: blood was taken from rabbit ear marginal vein, anticoagulated with Alsever's solution at a ratio of 1:1, stored in portions at 4° C., and could be stored for 4 weeks. Before use, the suspension was centrifuged at 500 g for 5 min to discard the Alsever's solution, washed three times with an equal volume of buffer and centrifuged at 500 g for 5 min, and finally the density was adjusted to 6×10^8 cells/mL with buffer.
In the 96-well ELISA plate, the experimental group was added with 50 μL of 48% NHP or 26.4% NHS and 50 μL of compound solution; the positive control group was added with 50 μL of 48% NHP or 26.4% NHS and 50 μL of buffer containing 0.2% DMSO; the blank control group was added with 50 μL of 48% inactivated NHP or 26.4% inactivated NHS and 0.2% DMSO buffer; the H2O group was added with 100 μL of double-distilled water; incubated at 37° C. for 15 min; 20 μL of rabbit erythrocyte suspension was added to each well and incubated on a shaker at 37° C. for 30 min; centrifuged at 2000 g (3380 rpm) for 5 min, and […] of supernatant was transferred to a new 96-well ELISA plate, and the absorbance was detected at 415 nm.
The PC group represents 100% hemolysis, and the NC group represents 0% hemolysis.
IC50: half-maximal inhibitory concentration. Data were collected to calculate the log value of hemolysis percentage versus compound concentration, and IC50 values were calculated using GraphPad Prism software.

[2] = biological target: T1, complement factor D (Homo sapiens, UniProt P00746); assay: Complement factor D inhibitory activity (C3b method) in vitro screening; product Bb detected by ELISA; assay type: biochemical; conditions: factor D + factor B + factor C3b, 37° C., Bb by MicroVue Bb Plus ELISA
T1 construct: purchased Complement tech
T1 sequence (P00746 26-253): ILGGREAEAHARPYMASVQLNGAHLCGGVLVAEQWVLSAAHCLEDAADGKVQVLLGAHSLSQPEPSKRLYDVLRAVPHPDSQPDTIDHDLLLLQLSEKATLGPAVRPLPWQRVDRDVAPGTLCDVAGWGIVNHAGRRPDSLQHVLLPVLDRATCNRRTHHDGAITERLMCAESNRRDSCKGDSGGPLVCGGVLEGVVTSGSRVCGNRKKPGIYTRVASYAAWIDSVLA
Source text: 1. Complement Factor D Inhibitory Activity (C3b Method) In Vitro Screening Experiment
V-bottom plate (AXYGEN), DMSO (Sigma), MicroVue Bb Plus ELISA kit (Quidel), complement factor C3b (abbreviated as factor C3b, Complement tech), complement factor B (abbreviated as factor B, Complement tech), complement factor D (abbreviated as factor D, Complement tech), EDTA (MACKLIN), GVB^o (Complement tech), EGTA (Aladdin), MgCl2 (Aladdin), NaOH (Sinopharm), microplate reader (Molecular Devices, SpectraMax i3x), microplate thermostatic shaker (Thermo, MB100-2A), pipette (Gilson)
0.1 M Mg-EGTA: 3.8 g of EGTA, 0.9521 g of MgCl2, and 0.7 g of NaOH were weighed, and the pH was adjusted to 7.5 with NaOH. Distilled water was added to make up to 100 mL, and the mixture was filtered with a […] sterile needle filter, stored in portions at 4° C.
Buffer: 0.1 M Mg-EGTA solution was diluted 10-fold to 10 mM with GVB^o buffer; • factor B working solution: 1 mg/mL factor B solution (10.75 μM) was diluted 6.7-fold to 1.6 μM with buffer; • factor C3b working solution: 1 mg/mL factor C3b solution (5.68 μM) was diluted 5-fold to […] with buffer; • factor D working solution: 0.1 mg/mL factor D solution (4.17 μM) was diluted 1303-fold to 3.2 nM with buffer.
Note: a. The above dilution multiples are for reference only and are adjusted according to the true concentration labeled on the reagent; • b. factor B: 93 KDa, factor D: 24 KDa, factor C3b: 176 KDa.
Stop solution: An appropriate amount of EDTA powder was weighed, dissolved in a certain amount of GVB^o buffer, and the pH was adjusted to 7.5 with NaOH. The mixture was stirred until clear and prepared into a 10 mM solution.
Compound stock solution: 40 mM compound solution was diluted with DMSO into 1 mM stock solution, and the 1 mM stock solution was diluted 3-fold with DMSO at 8 points to prepare compound stock solutions of various concentrations.
Compound working solution: diluted 250-fold with buffer to obtain compound solutions of various concentrations.
In the V-bottom plate, the experimental group was added with 10 μL of factor D solution and 10 μL of compound solution; the positive control group was added with 10 μL of factor D solution and buffer containing 0.4% DMSO; the blank control group was added with […] containing 0.2% DMSO; incubated at 37° C. for 15 min; the factor B working solution and the factor C3b working solution were mixed homogeneously at a ratio of 1:1; 20 µL of the mixture was added to each well and incubated at 37° C. for 30 min; the reaction was stopped by adding 40 μL of stop solution; the production of product Bb was detected by MicroVue Bb Plus ELISA kit.
1.4.1 The required wells of the ELISA plate were taken out and allowed to return to room temperature, and the remaining ones were repackaged and stored at 4° C.;
1.4.2 the wells were washed twice with 300 μL of 1× wash buffer, and incubated for 1 min at 25° C. for the first wash;
1.4.3 samples were diluted 8-fold with complement specimen diluent, and 100 μL of sample was added to each well and incubated at 25° C. for 30 min;
1.4.4 the liquid in the wells was discarded, and the wells were washed 5 times with 300 μL of 1× wash buffer, and incubated at room temperature for 1 min for the first wash;
1.4.5 50 μL of Bb Plus Conjugate was added to each well and incubated at 25° C. for 30 min;
1.4.6 the liquid in the wells was discarded, and the wells were washed 5 times with 300 μL of 1× wash buffer, and incubated at room temperature for 1 min for the first wash;
1.4.7 100 μL of […] (Substrate Solution) was added to each well and incubated at 25° C. for 15 min;
1.4.8 100 μL of stop solution was added to each well, and the absorbance was detected at 450 nm within 30 min.
1.5.1 Inhibition rate of each drug concentration:
The PC group represents 0% inhibition rate, and the NC group represents 100% inhibition rate. […]

[3] = In vivo pharmacokinetic study (PK assay on SD rats); conditions: Sprague-Dawley, rat, plasma; for AUC(0-t) / Cmax / half-life: 1 mg/kg
Procedure: 3. In Vivo Pharmacokinetic Study of the Compounds of the Present Disclosure
After adaptive domestication, SPF grade SD rats were administered 1 or 3 mg/kg the compounds of the present disclosure by single gavage and tail vein injection, respectively. Plasma was collected at specific time points after administration, and the concentration of compounds in plasma was detected by LC-MS/MS (AB SCIEX Qtrap4500). The PK parameters of each compound were calculated using software to reflect the pharmacokinetic properties of the compounds of the present disclosure in vivo in animals.

SMILES | IC50 [1] | further results
NCc1cccc(-c2cc(COc3ccccc3CC(=O)O)cc(N3CCC4(CCC4)CC3)c2)c1 [Compound 002, 2-(2-((3′-(aminomethyl)-5-(7-azaspiro[3.5]nonan-7-yl)-[1,1′-biphenyl]-3-yl)methoxy)phenyl)acetic acid] | 98 nM | 
NCc1cccc(-c2cc(COc3ccccc3CC(=O)O)cc(N3CCC4(CCC4)C3)c2)c1 [Compound 003, 2-(2-((3′-(aminomethyl)-5-(6-azaspiro[3.4]octan-6-yl)-[1,1′-biphenyl]-3-yl)methoxy)phenyl)acetic acid] | 43 nM | IC50 [2]: 3 nM
NCc1cccc(-c2cc(COc3ccccc3CC(=O)O)cc(N3CCCC4(CC4)C3)c2)c1 [Compound 004, 2-(2-((3′-(aminomethyl)-5-(5-azaspiro[2.5]octan-5-yl)-[1,1′-biphenyl]-3-yl)methoxy)phenyl)acetic acid] | 36 nM | IC50 [2]: 19 nM
NCc1cccc(-c2cc(COc3ccccc3CC(=O)O)cc(N3CC4(CCCCC4)C3)c2)c1 [Compound 005, 2-(2-((3′-(aminomethyl)-5-(2-azaspiro[3.5]nonan-2-yl)-[1,1′-biphenyl]-3-yl)methoxy)phenyl)acetic acid] | 73 nM | 
NCc1cccc(-c2cc(COc3cc(F)ccc3CC(=O)O)cc(N3CCC4(CC3)CC4)c2)c1 [Compound 009, 2-(2-((3′-(aminomethyl)-5-(6-azaspiro[2.5]octan-6-yl)-[1,1′-biphenyl]-3-yl)methoxy)-4-fluorophenyl)acetic acid] | 218 nM | 
NCc1cccc(-c2cc(COc3ccc(F)cc3CC(=O)O)cc(N3CCC4(CC3)CC4)c2)c1 [Compound 010, 2-(2-((3′-(aminomethyl)-5-(6-azaspiro[2.5]octan-6-yl)-[1,1′-biphenyl]-3-yl)methoxy)-5-fluorophenyl)acetic acid] | 159 nM | AUC(0-t) ([3]; IV): 5660 ng·h/mL; Cmax ([3]; IV): 1840 ng/mL; half-life ([3]; IV): 199 min; bioavailability ([3]; PO 1 mg/kg vs IV 1 mg/kg, read-out: Oral bioavailability F): 30.9%; AUC(0-t) ([3]; PO (3% DMSO + 4% Tween)): 1750 ng·h/mL; Cmax ([3]; PO (3% DMSO + 4% Tween)): 349 ng/mL; half-life ([3]; PO (3% DMSO + 4% Tween)): 191 min
NCc1cccc(-c2cc(COc3ccccc3CC(=O)O)cc(N3CCC4(COC4)C3)c2)c1 [Compound 015, 2-(2-((3′-(aminomethyl)-5-(2-oxa-6-azaspiro[3.4]octan-6-yl)-[1,1′-biphenyl]-3-yl)methoxy)phenyl)acetic acid] | 7 nM | 
NCc1cccc(-c2cc(COc3ccccc3CC(=O)O)c(F)c(N3CCC4(CC3)COC4)c2)c1 [Compound 026, 2-(2-((3′-(aminomethyl)-4-fluoro-5-(2-oxa-7-azaspiro[3.5]nonan-7-yl)-[1,1′-biphenyl]-3-yl)methoxy)phenyl)acetic acid] | 16 nM | 
NCc1cccc(-c2cc(COc3c(F)cccc3CC(=O)O)cc(N3CCC4(CC3)COC4)c2)c1 [Compound 028, 2-(2-((3′-(aminomethyl)-5-(2-oxa-7-azaspiro[3.5]nonan-7-yl)-[1,1′-biphenyl]-3-yl)methoxy)-3-fluorophenyl)acetic acid] | 58 nM | 
CC(N)c1cccc(-c2cc(COc3ccccc3CC(=O)O)cc(N3CCOC4(CC4)C3)c2)c1 (centres unmarked) [Compound 035] | 183 nM | 
CC(N)c1cccc(-c2cc(COc3ccccc3CC(=O)O)cc(N3CCC4(CCOC4)CC3)c2)c1 (centres unmarked) [Compound 036] | 44 nM | 
CC(N)c1cccc(-c2cc(COc3ccccc3CC(=O)O)cc(N3CCC4(CCOCC4)CC3)c2)c1 (centres unmarked) [Compound 038] | 206 nM | 
CC(N)c1cccc(-c2cc(COc3ccccc3CC(=O)O)cc(N3CCC4(CCCOC4)CC3)c2)c1 (centres unmarked) [Compound 039] | 127 nM | 
CC(N)c1cccc(-c2cc(COc3ccccc3CC(=O)O)cc(N3CC4(CCOC4)C3)c2)c1 (centres unmarked) [Compound 040] | 138 nM | 
CC(N)c1cccc(-c2cc(COc3ccccc3CC(=O)O)cc(N3CCC4(CCO4)C3)c2)c1 (centres unmarked) [Compound 041, 2-(2-((3′-(1-aminoethyl)-5-(1-oxa-6-azaspiro[3.4]octan-6-yl)-[1,1′-biphenyl]-3-yl)methoxy)phenyl)acetic acid] | 151 nM | 
CC(N)c1cccc(-c2cc(COc3ccccc3CC(=O)O)cc(N3CCC4(CC3)COC4)c2)c1 (centres unmarked) [Compound 042] | 50 nM | 
CC(N)c1cccc(-c2cc(COc3ccccc3CC(=O)O)cc(N3CCC4(CCO4)CC3)c2)c1 (centres unmarked) [Compound 043] | 93 nM | 
NC(CF)c1cccc(-c2cc(COc3ccccc3CC(=O)O)cc(N3CCC4(CC3)COC4)c2)c1 (centres unmarked) [Compound 044, 2-(2-((3′-(1-amino-2-fluoroethyl)-5-(2-oxa-7-azaspiro[3.5]nonan-7-yl)-[1,1′-biphenyl]-3-yl)methoxy)phenyl)acetic acid] | 133 nM | 
CC(N)c1cccc(-c2cc(COc3ccccc3CC(=O)O)cc(N3CCC4(CCOCC4)CC3)c2)c1F (centres unmarked) [Compound 055, 2-(2-((3′-(1-aminoethyl)-2′-fluoro-5-(3-oxa-9-azaspiro[5.5]undecan-9-yl)-[1,1′-biphenyl]-3-yl)methoxy)phenyl)acetic acid] | 117 nM | 
CC(N)c1cccc(-c2cc(COc3ccccc3CC(=O)O)cc(N3CCC4(CCCOC4)CC3)c2)c1F (centres unmarked) [Compound 056, 2-(2-((3′-(1-aminoethyl)-2′-fluoro-5-(2-oxa-9-azaspiro[5.5]undecan-9-yl)-[1,1′-biphenyl]-3-yl)methoxy)phenyl)acetic acid] | 70 nM | 
